Laboratory results reported in the supplement of paper PMC10307832.

Tests used:
Assay in all cases: relative viability (nuclei count vs DMSO), 5 days (fraction); higher = more cells survive
[1] = compound: CC1=CC(=C(N1C2=CC=C(C=C2)Cl)C)C(=O)CN3CCCCC3 [IU1-47] + O=C(c1cc(Cc2n[nH]c(=O)c3ccccc23)ccc1F)N1CCN(C(=O)C2CC2)CC1 [Olaparib] (partner 8 µM)
Outline: (§1)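 Values are medians from duplicate plates. Each reflects relative viability, defined as the nuclei count of treated wells over that of vehicle wells. Lung cancer cell lines in 1536-well plates were pin-tool dosed one day after seeding with one drug alone or with a fixed anchor-drug dose plus five library-drug doses (not always all listed) in √10 steps, then fixed, stained and imaged at 4× after 5 days.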

[2] = compound: Cc1nc(C(=O)NCC(=O)O)c(O)c2ccc(Oc3ccccc3)cc12 [FG-4592] + O=C(CCCCCCC(=O)Nc1ccccc1)NO [Vorinostat] (partner 1 µM)
Outline: as §1

[3] = compound: CC1=CC(=C(N1C2=CC=C(C=C2)Cl)C)C(=O)CN3CCCCC3 [IU1-47] + Nc1nc2[nH]cc(CCc3ccc(C(=O)N[C@@H](CCC(=O)O)C(=O)O)cc3)c2c(=O)[nH]1 [Pemetrexed] (partner 0.2 µM)
Outline: as §1

[4] = compound: Cc1nc(C(=O)NCC(=O)O)c(O)c2ccc(Oc3ccccc3)cc12 [FG-4592] + CS(=O)(=O)N1CCN(Cc2cc3nc(-c4cccc5[nH]ncc45)nc(N4CCOCC4)c3s2)CC1 [Pictilisib] (partner 1 µM)
Outline: as §1

Cell Line	relative viability ([1]; first compound 0.08 µM)	relative viability ([1]; first compound 0.253 µM)	relative viability ([1]; first compound 0.8 µM)	relative viability ([1]; first compound 2.53 µM)	relative viability ([1]; first compound 8 µM)	relative viability ([2]; first compound 0.08 µM)	relative viability ([2]; first compound 0.253 µM)	relative viability ([2]; first compound 0.8 µM)	relative viability ([2]; first compound 2.53 µM)	relative viability ([2]; first compound 8 µM)	relative viability ([3]; first compound 0.08 µM)	relative viability ([3]; first compound 0.253 µM)	relative viability ([3]; first compound 0.8 µM)	relative viability ([3]; first compound 2.53 µM)	relative viability ([3]; first compound 8 µM)	relative viability ([4]; first compound 0.08 µM)	relative viability ([4]; first compound 0.253 µM)	relative viability ([4]; first compound 0.8 µM)	relative viability ([4]; first compound 2.53 µM)	relative viability ([4]; first compound 8 µM)
201T	0.829	0.869	0.854	0.838	0.666	0.905	0.933	0.807	0.972	0.993	0.458	0.386	0.317	0.261	0.389	0.642	0.644	0.584	0.695	0.675
A549	0.467	0.28	0.324	–	0.371	–	–	–	–	–	–	–	–	–	–	0.488	0.455	0.452	0.489	0.456
A-427	0.81	0.811	0.716	0.82	0.711	0.84	0.85	0.845	0.806	0.78	1.06	1	0.993	1	0.937	0.674	0.739	0.503	0.661	0.742
ABC-1	1.14	1.05	0.816	–	0.907	1.14	1.01	–	1.14	1.03	–	–	–	–	–	0.778	–	0.55	0.7	0.539
BEN	1.1	1.06	1.12	1.11	0.933	0.558	0.566	0.459	0.546	0.547	0.732	0.765	0.899	0.523	0.674	0.442	0.485	0.429	0.561	0.459
CAL-12T	0.705	0.726	0.747	0.797	0.863	0.624	0.583	0.651	0.585	0.496	1.2	1.39	1.15	1.34	1.04	0.516	0.494	0.221	0.555	0.523
COR-L23	0.382	0.389	0.314	0.396	0.405	0.414	0.373	0.427	0.337	0.457	0.212	0.18	0.199	0.195	0.208	0.812	0.617	0.849	0.685	0.728
COR-L 105	0.817	0.78	0.699	0.665	0.745	0.723	0.755	0.843	0.699	0.769	1.12	1.17	0.93	1.12	1.02	0.372	0.326	0.328	0.266	0.318
Calu-6	0.618	0.566	0.586	0.617	0.616	–	–	–	–	–	–	–	–	–	–	0.885	0.859	0.921	0.902	0.856
ChaGo-K-1	0.433	0.393	0.435	0.452	0.362	0.694	0.819	0.687	0.758	0.693	0.26	0.257	0.282	0.249	0.268	0.769	0.714	0.452	0.791	0.544
EBC-1	0.685	0.691	0.696	0.663	0.766	–	–	–	–	–	–	–	–	–	–	0.401	0.371	0.417	0.387	0.335
EKVX	0.827	1.06	0.896	–	0.87	0.869	0.619	0.64	0.706	0.784	0.407	0.406	0.423	–	0.453	0.395	0.377	0.478	0.428	0.441
EMC-BAC-2	0.507	0.548	0.402	0.534	0.533	0.43	0.467	–	0.561	0.366	0.458	0.436	0.556	0.459	0.468	0.439	0.476	0.396	0.564	0.445
EPLC-272H	0.77	0.867	0.684	0.851	0.92	0.41	0.487	0.41	0.559	0.472	0.332	0.422	0.316	0.327	0.313	0.276	0.26	0.28	0.37	0.434
H3255	0.64	0.609	0.569	0.54	0.561	0.89	0.684	0.721	0.693	0.84	0.624	0.544	0.63	0.605	0.511	0.396	0.472	0.51	0.44	0.5
HARA	1.02	–	0.703	0.632	0.567	0.554	0.556	0.507	0.662	0.607	0.258	–	0.199	0.26	0.22	0.329	0.292	–	0.46	0.304
HCC-15	0.75	0.722	0.767	0.711	0.662	0.975	0.796	0.776	0.82	0.829	0.229	0.219	0.226	0.218	0.228	0.65	0.723	0.738	0.729	0.784
HCC-44	1.07	0.978	1.03	1.06	0.93	1.03	1.05	1.2	1.16	1.11	0.706	0.685	0.647	0.668	0.696	0.569	0.609	0.498	0.614	0.602
